The record followed here is ChEMBL document CHEMBL3407403, “Synthetic modification of hydroxychavicol by Mannich reaction and alkyne-azide cycloaddition derivatives depicting cytotoxic potential” (Eur J Med Chem, 2015).

Type in all cases: functional
Test [1] relates to HepG2. Briefly: Growth inhibition of human HepG2 cells at 50 uM after 72 hrs by MTT assay. To be noted: HepG2, 72 h, read-out: GI. On the technique in general: Tetrazolium dyes change colour on reduction, which living cells bring about.
For test [2], the system named is MCF7. As to the kind of experiment: Growth inhibition of human MCF7 cells at 50 uM after 72 hrs by MTT assay. To be noted: MCF7, 72 h, read-out: GI.
A short description of test [3]: Growth inhibition of human HL60 cells at 30 uM after 72 hrs by MTT assay. To be noted: HL-60, 72 h, read-out: GI.
Test [4] relates to HepG2. Briefly: Growth inhibition of human HepG2 cells at 30 uM after 72 hrs by MTT assay. Conditions: HepG2, 72 h, read-out: GI.
Test [5] deals with MCF7. As to the kind of experiment: Growth inhibition of human MCF7 cells at 30 uM after 72 hrs by MTT assay. To be noted: MCF7, 72 h, read-out: GI.
A short description of test [6]: Growth inhibition of human MIAPaCa2 cells at 50 uM after 72 hrs by MTT assay. To be noted: MIA PaCa-2, 72 h, read-out: GI.
A short description of test [7]: Growth inhibition of human MIAPaCa2 cells at 30 uM after 72 hrs by MTT assay. Conditions: MIA PaCa-2, 72 h, read-out: GI.
In test [8] the test system is SK-N-SH. As to the kind of experiment: Growth inhibition of human SK-N-SH cells at 50 uM after 72 hrs by MTT assay. Conditions: read-out: GI.
The test system of test [9] is SK-N-SH. As to the kind of experiment: Growth inhibition of human SK-N-SH cells at 30 uM after 72 hrs by MTT assay. To be noted: read-out: GI.
The nature of test [10]: Growth inhibition of human HL60 cells at 50 uM after 72 hrs by MTT assay. Conditions: HL-60, 72 h, read-out: GI.

On to `C=CCc1cc(O)c(O)c(CN2CCC(CO)CC2)c1`, for which the inhibition of growth at 50 µM in the test on HepG2 [1] amounted to 5.4%; in the test on MCF7 [2] it was 32.3%; in test [6], 38.6%; with SK-N-SH [8], 49.4%; in test [10], 43.3%. In addition, the inhibition of growth at 30 µM stood at 37.7% in test [3]; 4.7% in the test with HepG2 [4]; 26.2% in the test on MCF7 [5]; 34.1% in [7]; 21.9% in the test with SK-N-SH [9].
For `C=CCc1ccc(OCc2cn(-c3cccc([N+](=O)[O-])c3)nn2)c(O)c1`, the inhibition of growth at 50 µM was 30.2% with HepG2 [1]; 56.5% in the test with MCF7 [2]; 58.8% in [6]; 68.9% with SK-N-SH [8]; 65.5% in test [10]. Also, the inhibition of growth at 30 µM in test [3] worked out at 29.8%; in the test with HepG2 [4] it was 15.2%; in the test on MCF7 [5] it was 42.3%; in [7], 42.9%; with SK-N-SH [9] it was 31.1%.
In the case of `C=CCc1cc(O)c(O)c(CN2CCC(CCO)CC2)c1`, the inhibition of growth at 50 µM in the test with HepG2 [1] is 2%; in the test on MCF7 [2] it was 33.3%; in [6], 71.8%; with SK-N-SH [8] it was 40.6%; in test [10], 52.1%. Also, the inhibition of growth at 30 µM in [3] was 39.4%; with HepG2 [4], 2.5%; in the test on MCF7 [5], 21.4%; in test [7], 54.4%; in the test with SK-N-SH [9] it was 15.3%.
Turning to `C=CCc1ccc(OCc2cn(-c3cccc(C#N)c3)nn2)c(O)c1`, the inhibition of growth at 50 µM with HepG2 [1] turned out to be 3.4%; in the test with MCF7 [2], 33.4%; in test [6], 41.6%; in the test on SK-N-SH [8], 78.8%; in test [10], 30.9%. For the same compound, the inhibition of growth at 30 µM in [3] came to 22.5%; in the test on HepG2 [4] it was 2.3%; in the test on MCF7 [5] it was 31.9%; in [7] it was 26.6%; in the test on SK-N-SH [9] it was 21.2%.
Take `C=CCc1cc(O)c(O)c(CN2CCOCC2)c1`: the inhibition of growth at 50 µM in the test with HepG2 [1] came to 6.5%; with MCF7 [2] it was 48.9%; in test [6], 67.5%; with SK-N-SH [8], 86.1%; in [10] it was 90.5%. Further, the inhibition of growth at 30 µM in [3] came to 89.8%; in the test on HepG2 [4], 2.1%; in the test with MCF7 [5], 33.5%; in [7], 54.4%; with SK-N-SH [9] it was 49.6%.
For `C=CCc1ccc(OCc2cn(-c3ccc(C#N)cc3)nn2)c(O)c1`, the inhibition of growth at 50 µM is 12.1% with HepG2 [1]; 35.6% with MCF7 [2]; 45.9% in test [6]; 62.5% in the test with SK-N-SH [8]; 31.8% in test [10]. The inhibition of growth at 30 µM is 20.8% in [3]; 1.5% in the test with HepG2 [4]; 35.7% with MCF7 [5]; 39.3% in test [7]; 37.5% in the test with SK-N-SH [9].
Consider `C=CCc1ccc(OCc2cn(-c3ccc(OC)cc3)nn2)c(O)c1`, for which the inhibition of growth at 50 µM in the test with HepG2 [1] came out at 49.9%; in the test on MCF7 [2], 57.2%; in test [6], 88.2%; with SK-N-SH [8], 68.5%; in [10], 38.9%. Further, the inhibition of growth at 30 µM in [3] was found to be 21.3%; with HepG2 [4], 15.4%; in the test on MCF7 [5], 38.8%; in test [7] it was 62.3%; in the test on SK-N-SH [9], 31.5%.
Regarding `C=CCc1cc(O)c(O)c(CN2CCN(c3ccc(C(C)=O)cc3)CC2)c1`, the inhibition of growth at 50 µM in the test with HepG2 [1] is 65.9%; in the test with MCF7 [2], 47.1%; in [6], 75.1%; with SK-N-SH [8], 54.6%; in test [10], 89.2%. Moreover, the inhibition of growth at 30 µM amounted to 87.9% in [3]; 46.1% in the test with HepG2 [4]; 42.8% in the test with MCF7 [5]; 86.2% in test [7]; 53.8% in the test on SK-N-SH [9].
Consider `C=CCc1ccc(OCc2cn(-c3ccc(C(=O)c4ccccc4)cc3)nn2)c(O)c1`, for which the inhibition of growth at 50 µM in the test on HepG2 [1] came to 16.2%; in the test on MCF7 [2] it was 35.6%; in [6] it was 53.7%; in the test with SK-N-SH [8] it was 58.1%; in test [10], 40.5%. In addition, the inhibition of growth at 30 µM was 38.3% in [3]; 14.8% in the test on HepG2 [4]; 40.3% with MCF7 [5]; 40.1% in test [7]; 41.9% in the test with SK-N-SH [9].
With `C=CCc1cc(O)c(O)c(CN2CCN(C)CC2)c1`, the inhibition of growth at 50 µM in the test on HepG2 [1] is 6.3%; with MCF7 [2] it was 35.1%; in test [6] it was 69.5%; in the test with SK-N-SH [8], 30.8%; in [10], 53.4%. The inhibition of growth at 30 µM in [3] is 42.1%; in the test on HepG2 [4] it was 1.5%; in the test with MCF7 [5], 22.8%; in test [7], 46.8%; in the test with SK-N-SH [9] it was 24.7%.
Consider `C=CCc1ccc(OCc2cn(-c3ccc(Br)cc3)nn2)c(O)c1`, for which the inhibition of growth at 50 µM with HepG2 [1] is 9.5%; with MCF7 [2], 29.1%; in test [6] it was 47.3%; in the test on SK-N-SH [8] it was 61.7%; in test [10], 25.6%. Moreover, the inhibition of growth at 30 µM in [3] turned out to be 22.1%; with HepG2 [4], 8.9%; with MCF7 [5] it was 19.4%; in [7] it was 43.3%; in the test with SK-N-SH [9], 38.3%.
For `C=CCc1cc(O)c(O)c(CN2CCC(C)CC2)c1`, the inhibition of growth at 50 µM with HepG2 [1] stood at 69.7%; with MCF7 [2] it was 54.2%; in test [6], 90.6%; in the test with SK-N-SH [8] it was 84.2%; in [10] it was 91.8%. For the same compound, the inhibition of growth at 30 µM came to 91.1% in test [3]; 57.6% in the test on HepG2 [4]; 41.7% in the test with MCF7 [5]; 91.5% in [7]; 74.7% with SK-N-SH [9].
On to `C=CCc1ccc(OCc2cn(-c3ccccc3CO)nn2)c(O)c1`, for which the inhibition of growth at 50 µM was 8.5% with HepG2 [1]; 40.4% in the test with MCF7 [2]; 52.1% in [6]; 87.1% with SK-N-SH [8]; 47.1% in test [10]. The inhibition of growth at 30 µM in test [3] was 31.7%; in the test with HepG2 [4], 4.2%; in the test on MCF7 [5], 34.5%; in test [7], 39.6%; in the test on SK-N-SH [9], 12.9%.
For the compound `C#CCOc1ccc(CC=C)cc1O`, the inhibition of growth at 50 µM in the test with HepG2 [1] turned out to be 5.6%; in the test on MCF7 [2], 15.8%; in [6] it was 30.3%; in the test on SK-N-SH [8], 88.4%; in [10] it was 34.2%. The inhibition of growth at 30 µM was 30.7% in test [3]; 1.5% in the test on HepG2 [4]; 23.7% in the test with MCF7 [5]; 27.4% in test [7]; 11.8% in the test on SK-N-SH [9].
For `C=CCc1ccc(OCc2cn(-c3cc(OC)c(OC)c(OC)c3)nn2)c(O)c1`, the inhibition of growth at 50 µM in the test on HepG2 [1] came to 2.5%; in the test on MCF7 [2], 38.1%; in test [6], 49.8%; in the test with SK-N-SH [8], 55.9%; in [10], 41.4%. The inhibition of growth at 30 µM in [3] was 32.8%; with HepG2 [4], 1.2%; in the test with MCF7 [5], 37.3%; in test [7], 41.1%; in the test on SK-N-SH [9], 44.1%.
Turning to `C=CCc1ccc(OCc2cn(-c3ccccc3Cl)nn2)c(O)c1`, the inhibition of growth at 50 µM amounted to 4.7% with HepG2 [1]; 34.3% in the test with MCF7 [2]; 57.7% in test [6]; 42.8% in the test with SK-N-SH [8]; 43.2% in [10]. For the same compound, the inhibition of growth at 30 µM in [3] is 38.7%; in the test on HepG2 [4], 2.5%; in the test on MCF7 [5], 58.3%; in test [7] it was 46.6%; in the test with SK-N-SH [9], 10.2%.
